In patent US20110245323A1, “RIG-Like Helicase Innate Immunity Inhibits VEGF-Induced Tissue Responses” (Yale University, priority 2006, published 2011):
Entries after “also recorded” stand apart in the source; their conditions may differ.

Experiments:
Type in all cases: in vivo, mouse
IFN-α and IFN-β = test: BAL Type I IFNs by ELISA; details: WT (Tg−) and VEGF Tg+ animals
Protocol: ELISA and activity assay kits for IFNa and IFNβ analysis were purchased from PBL Biomedical Laboratories (Piscataway, N.J.). ELISAs for eotaxin/CCL11, MCP-1/CCL2, KC/CXCL1 and MIP-2/CXCL14 were obtained from R&D Systems (Minneapolis, Minn. USA). Each was performed according to the manufacturer's instructions.

[1] = tested on: CC10-rtTA-VEGF165 transgenic mice; test: VEGF-induced angiogenesis, anti-CD31 immunohistochemistry and vessel area density; details: for VEGF-induced angiogenesis (vascular density, appearance, sprouting): pretreatment starting 1 day before dox, vs vehicle
Protocol: The CC10-rtTA-VEGF165 transgenic mice used in this study were generated and used as described previously (Lee et al., 2004, Nature Medicine 10:1095-103), which reference is incorporated herein in its entirety. These animals were housed under barrier conditions in the animal facility at Yale University School of Medicine. In these experiments 6-8 week old transgenic (Tg+) animals and their transgene negative littermate controls (Tg−) were randomized to receive water with doxycycline (dox) (0.5 mg/ml) or normal water. Two weeks later they were sacrificed and the VEGF-induced phenotype was evaluated as described below (Lee et al., 2004, Nature Medicine 10:1095-103).
To define the effects of these agents on the tissue responses induced by VEGF, two experimental procedures were used. In the first, a pretreatment protocol was used. In these experiments the noted innate immunity agonist ([…] unless otherwise indicated) or its vehicle control (PBS) were administered intranasally and aspirated into the lungs of randomized Tg+ and Tg− mice starting one day before the Dox water treatment. The doses were administered to the mice every other day during the 2 week doxyxycline (dox) treatment interval.
To determine if the innate immunity agonists altered established VEGF-induced tissue responses, a “post treatment” protocol was used in selected experiments. In these experiments the innate immunity agonist was administered 2 days or 14 days after the doxycycline and VEGF-induced responses were evaluated 2 weeks later.
(§1) To define the effects of Poly(I:C) a number of protocols were employed. In most experiments, a pretreatment-2 week protocol was employed. In these experiments, WT and Tg+ mice were treated with Poly(I:C) (30 μg in 50 lambda unless otherwise indicated; Amersham Biosciences, N.J.) or vehicle control via nasal aspiration and transgene activation was accomplished via the administration of dox (0.5 mg/ml) in the animal's drinking water 24 hours later. The Poly(I:C) was administered every other day and the dox was administered continuously for up to 2 weeks.
In selected experiments a pretreatment protocol and shorter treatment interval was employed. In these experiments, WT and Tg+ mice were treated with Poly(I:C) (30 μg/mouse/dose in 50 μl) or vehicle control via nasal aspiration and transgene activation was accomplished with dox 24 hours later. The animals were then randomized to not receive or receive one additional dose of Poly(I:C) 24 hours later and dox was administered continuously during this 2 week interval.
(§2) Lastly, in selected experiments post-transgene activation protocols were employed. In these experiments dox was administered for 2 days or 2 weeks. The Poly(I:C) was then administered via intranasal aspiration every other day for 2 weeks as disclosed elsewhere herein. In selected pre-treatment and post-transgene activation experiments, unmethylated CpG (CpG-B) (Keck Center, Yale University) was also employed at similar doses. At the end of these intervals, assessments of angiogenesis (anti-CD31 immunohistochemistry), vascular permeability (Evan's blue dye extravasation, wet to dry lung weight measurements, BAL protein concentration), BAL and tissue inflammatory cell infiltration and mucus metaplasia (periodic acid-Schiff (PAS) staining, MUC5AC immunoblotting) were undertaken. In all cases experiments were designed to compare Tg− and Tg+ mice on normal water and Tg− and Tg+ mice on dox water.

[2] = tested on: OVA sensitized and challenged mice; test: Ovalbumin (OVA) sensitization and challenge Th2 inflammation model
Protocol: Mice were sacrificed using intraperitoneal ketamine/xylazine injection and the trachea was cannulated and perfused with two 0.9 nil aliquots of cold saline. The cellular contents and BAL fluid were separated by centrifugation, the BAL cell number was quantitated and cell differential was assessed. The BAL fluid was stored in aliquots at −80° C.
ELISA assay kits for VEGF and IL-13 were purchased from R&D Systems (Minneapolis, Minn.).
OVA sensitization (with alum) and aerosol OVA challenge were undertaken as previously described (Lee et al., 2008, Am J Respir Cell Mol Biol 39:739-746; Lee et al., 2009, J Exp Med 206:1149-1166). The responses in mice that had been treated with Poly(I:C) or vehicle 24 hours before the aerosol challenge were compared. The BAL and tissue responses were evaluated 24 hours after antigen challenge.

[3] = tested on: CC10-rtTA-VEGF165 transgenic mice; test: VEGF-induced vascular permeability (Evans blue dye extravasation, lung wet to dry weight ratio, BAL protein)
Protocol: as §1, §2
Lungs were excised en bloc and extrapulmonary tissues were removed. They were then weighed, placed in a desiccating oven at 65° C. for 48 hours and reweighed.
In some instances, animal lungs were excised en bloc after intravascular perfusion and weighed. They were then put into a SpeedVac system (ThermoSavant; Milford, Mass.), desiccated at 60° C. overnight, and reweighed.
Evans blue dye (EBD) (Sigma-Aldrich Inc.) in 0.9% saline at a concentration of 5 mg/ml was used to assess plasma leakage as previously described (Lee et al., 2004, Nat Med 10:1095-1103). The results are expressed as the ratio of the EBD absorbance at 620 nm of paired lung homogenates and serum.
BAL was undertaken and protein levels were assessed using the Dc Protein Assay Kit (Bio-Rad Laboratories, Hercules, Calif.) according to manufacturer's instructions. The optical density of each sample was read at 750 nm wave length with a Smartspec 3000 Spectrophotometer (Bio-Rad Laboratories).

VEGFR3 = test: VEGF receptor expression on dendritic and endothelial cells, FACS; details: Tg+ mice, pretreatment-2 week protocol
Protocol: (§3) Cell preparations were obtained from Tg− and Tg+ mice that had been randomized to receive Poly(I:C) or its vehicle control according to the pretreatment-2 week protocol described above. They were then incubated with antibodies against CD45, CD11c, MHCII, CD31, VEGFR1 (R & D Systems), VEGFR2 (Biolegends, San Diego, Calif. USA) or VEGFR3 (R&D Systems). FACS analysis was used to define the levels of receptor expression on dendritic cells (CD45+, CD11c+, MHCII+) and endothelial cells (CD45−, CD31+).

VEGFR1 = test: as above; details: Tg+ mice, pretreatment-2 week protocol
Protocol: as §3

VEGFR2 = test: as above; details: Tg+ mice, pretreatment-2 week protocol
Protocol: as §3

[4] = pretreatment, highest dose tested
[5] = Tg+ mice, pretreatment, vs vehicle

polyinosinic-polycytidylic acid [Poly(I:C)]
production of IFN-α and IFN-β in BAL (IFN-α and IFN-β): potent stimulator
VEGF-induced vascular responses, delayed administration ([1]; Tg+ mice, given 2 days (48 hours) or 14 days (2 weeks) after transgene activation with dox): significant decrease; also recorded: significant inhibition
VEGF-induced angiogenesis (vascular density, appearance, sprouting) ([1]; Tg+ mice): inhibited
VEGF-induced angiogenesis (vascular density, appearance, sprouting) ([1]; Tg+ mice, listed as poly(I:C)): markedly decreased
Vascularity (%) ([1]; VEGF-induced tissue responses, TLR agonist administration, PBS control 43): 28.7%
lowest dose with significant inhibition of VEGF-induced angiogenesis ([1]; pretreatment): 5 µg
dose with maximal inhibition of VEGF-induced angiogenesis [1, 4]: 30 µg
vascular density after as little as 1 dose ([1]; shorter treatment interval, 1 dose before dox): significant decrease
OVA-induced cytokine response (BAL IL-13) [2]: significant decrease
OVA-induced inflammatory response (BAL total cell, macrophage, eosinophil, lymphocyte recovery) ([2]; Poly(I:C) 24 hours before aerosol challenge): significant decrease; also recorded: abrogated
Evan's blue dye leakage in lungs [3, 5]: lower levels
VEGF-induced permeability alterations (Evans blue dye extravasation, lung wet to dry weight ratios, BAL protein) [3, 5]: inhibited
levels of protein in BAL fluids [3, 5]: lower levels
VEGF-induced vascular permeability alterations, delayed administration ([3]; given 48 hours or 14 days after dox-induced transgene activation): significant inhibition
lowest dose with significant inhibition of VEGF-induced permeability alterations ([3]; pretreatment): 5 µg
dose with maximal inhibition of VEGF-induced permeability alterations [3, 4]: 30 µg
expression of VEGFR3 on dendritic cells and endothelial cells (VEGFR3): not
expression of VEGFR1 on dendritic cells and endothelial cells (VEGFR1): inhibited
expression of VEGFR2 on dendritic cells and endothelial cells (VEGFR2): not
